Reference: patent publication US20120225061A1, “TETRASUBSTITUTED CYCLOHEXYL COMPOUNDS AS KINASE INHIBITORS” (priority 2011, published 2012)

Experiments:
Pim3 kinase = Pim3 kinase (Homo sapiens, UniProt Q86V86); experiment: Pim3 AlphaScreen assay (high ATP)
Procedure: (§1) The activity of Pim 1, Pim 2, & Pim 3 is measured using a homogeneous bead based system quantifying the amount of phosphorylated peptide substrate resulting from kinase-catalyzed phosphoryl transfer to a peptide substrate. Compounds to be tested are dissolved in 100% DMSO and directly distributed to a white 384-well plate at 0.25 μl per well. […] This is followed by the addition of 5 μl/well of Pim 1, Pim 2 or Pim 3 kinase in assay buffer (concentrations described below). Final assay concentrations (described below) are in 2.5% DMSO. The reactions are performed for ˜2 hours, then stopped by the addition of 10 μl of 0.75 μg/ml anti-phospho Ser/Thr antibody (Cell Signaling), 10 μg/ml Protein A AlphaScreen beads (Perkin Elmer), and 10 μg/ml streptavidin coated AlphaScreen beads in stop/detection buffer (50 mM EDTA, 95 mM Tris, pH=7.5, 0.01% Tween-20). The stopped reactions are incubated overnight in the dark. The phosphorylated peptide is detected via an oxygen anion initiated chemiluminescence/fluorescence cascade using the Envision plate reader (Perkin Elmer).

[1] = tested on: KMS11 (human myeloma cell line); experiment: Cell proliferation assay (CellTiter-Glo) in KMS11 cells; format: cell-based; conditions: KMS-11, 72 h, Table 5, 3 days, read-out: KMS11-luc EC50
Procedure: KMS11 (human myeloma cell line), were cultured in IMDM supplemented with 10% FBS, sodium pyruvate and antibiotics. Cells were plated in the same medium at a density of 2000 cells per well into 96 well tissue culture plates, with outside wells vacant, on the day of assay.
Test compounds supplied in DMSO were diluted into DMSO at 500 times the desired final concentrations before dilution into culture media to 2 times final concentrations.
After 3 days plates were equilibrated to room temperature and equal volume of CellTiter-Glow Reagent (Promega) was added to the culture wells. The plates were agitated briefly and luminescent signal was measured with luminometer.

Pim2 kinase = Pim2 kinase (Homo sapiens, UniProt Q9P1W9); experiment: Pim2 AlphaScreen assay (high ATP)
Chain of Pim2 kinase (Q9P1W9 whole entry): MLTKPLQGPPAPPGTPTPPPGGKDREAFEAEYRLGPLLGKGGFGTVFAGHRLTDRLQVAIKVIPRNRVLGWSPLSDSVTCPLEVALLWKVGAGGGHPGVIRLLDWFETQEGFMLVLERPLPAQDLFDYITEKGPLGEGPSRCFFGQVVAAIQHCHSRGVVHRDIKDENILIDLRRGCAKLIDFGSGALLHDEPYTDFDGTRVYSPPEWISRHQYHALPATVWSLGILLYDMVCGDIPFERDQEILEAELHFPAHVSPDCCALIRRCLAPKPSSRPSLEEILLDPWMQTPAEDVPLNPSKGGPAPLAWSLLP
Procedure: as §1

Pim1 kinase = Pim1 kinase (Homo sapiens, UniProt P11309); experiment: Pim1 AlphaScreen assay (high ATP)
Chain of Pim1 kinase (P11309 whole entry): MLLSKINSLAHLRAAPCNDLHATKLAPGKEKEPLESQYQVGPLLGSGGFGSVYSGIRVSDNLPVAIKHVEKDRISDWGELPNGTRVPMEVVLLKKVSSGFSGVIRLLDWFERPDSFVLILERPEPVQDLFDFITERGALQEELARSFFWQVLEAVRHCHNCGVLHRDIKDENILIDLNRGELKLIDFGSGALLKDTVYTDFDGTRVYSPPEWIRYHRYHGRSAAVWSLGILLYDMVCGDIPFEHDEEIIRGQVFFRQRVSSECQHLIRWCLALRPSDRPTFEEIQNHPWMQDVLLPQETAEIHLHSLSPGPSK

| Compound | IC50 (Pim3 kinase) | EC50 [1] | IC50 (Pim2 kinase) | IC50 (Pim1 kinase) |
| --- | --- | --- | --- | --- |
| C[C@H]1C[C@@H](c2ccncc2NC(=O)c2ccc(F)c(-c3c(F)cc(C4(O)CCCC4)cc3F)n2)C[C@@H](O)[C@]1(C)O [Example 80, 6-(2,6-difluoro-4-(1-hydroxycyclopentyl)phenyl)-N-(4-((1R,3R,4R,5S)-3,4-dihydroxy-4,5-dimethylcyclohexyl)pyridin-3-yl)-5-fluoropicolinamide] | 55 nM | 169 nM | 126 nM | 0.15 nM |
| C[C@H]1C[C@@H](c2ccncc2NC(=O)c2ccc(F)c(-c3c(F)cc(C4(C#N)CCOCC4)cc3F)n2)C[C@@H](N)[C@]1(C)O [Example 88, N-(4-((1R,3R,4R,5S)-3-amino-4-hydroxy-4,5-dimethylcyclohexyl)pyridin-3-yl)-6-(4-(4-cyanotetrahydro-2H-pyran-4-yl)-2,6-difluorophenyl)-5-fluoropicolinamide] | 5.59 nM | 101 nM | 5.8 nM | 0.03 nM |
| C[C@H]1C[C@@H](c2ccncc2NC(=O)c2ccc(F)c(-c3c(F)cc(OC4CCOCC4)cc3F)n2)C[C@@H](O)[C@]1(C)O [Example 90, 6-(2,6-difluoro-4-(tetrahydro-2H-pyran-4-yloxy)phenyl)-N-(4-((1R,3R,4R,5S)-3,4-dihydroxy-4,5-dimethylcyclohexyl)pyridin-3-yl)-5-fluoropicolinamide] | 64.4 nM | 557 nM | 215 nM | 0.47 nM |
| Cc1noc(C)c1-c1cc(F)c(-c2nc(C(=O)Nc3cnccc3[C@H]3C[C@@H](N)[C@](C)(O)[C@@H](C)C3)ccc2F)c(F)c1 [Example 94, N-(4-((1R,3R,4R,5S)-3-amino-4-hydroxy-4,5-dimethylcyclohexyl)pyridin-3-yl)-6-(4-(3,5-dimethylisoxazol-4-yl)-2,6-difluorophenyl)-5-fluoropicolinamide] | 47.8 nM | 3230 nM | 114 nM | 0.3 nM |
| C[C@@H]1C[C@H](c2ccncc2NC(=O)c2ccc(F)c(-c3c(F)cc(OC4CCOCC4)cc3F)n2)C[C@H](O)[C@@]1(C)O [Example 96, 6-(2,6-difluoro-4-(tetrahydro-2H-pyran-4-yloxy)phenyl)-N-(4-((1S,3S,4S,5R)-3,4-dihydroxy-4,5-dimethylcyclohexyl)pyridin-3-yl)-5-fluoropicolinamide] | 2620 nM | > 10000 nM | 8720 nM | 18.7 nM |
| C[C@H]1C[C@@H](c2ccncc2NC(=O)c2nc(-c3c(F)cc(C(C)(C)O)cc3F)c(F)cc2N)C[C@@H](O)[C@]1(C)O [Example 97, 3-amino-6-(2,6-difluoro-4-(2-hydroxypropan-2-yl)phenyl)-N-(4-((1R,3R,4R,5S)-3,4-dihydroxy-4,5-dimethylcyclohexyl)pyridin-3-yl)-5-fluoropicolinamide] | 8.24 nM | 405 nM | 28.9 nM | 0.24 nM |
| COCCOc1cc(F)c(-c2nc(C(=O)Nc3cnccc3[C@H]3C[C@@H](O)[C@](C)(O)[C@@H](C)C3)c(N)cc2F)c(F)c1 [Example 98, 3-amino-6-(2,6-difluoro-4-(2-methoxyethoxy)phenyl)-N-(4-((1R,3R,4R,5S)-3,4-dihydroxy-4,5-dimethylcyclohexyl)pyridin-3-yl)-5-fluoropicolinamide] | 40.2 nM | 427 nM | 133 nM | 0.83 nM |
| CC(C)Oc1cc(F)c(-c2nc(C(=O)Nc3cnccc3[C@H]3C[C@@H](O)[C@](C)(O)[C@@H](C)C3)c(N)cc2F)c(F)c1 [Example 99, 3-amino-6-(2,6-difluoro-4-isopropoxyphenyl)-N-(4-((1R,3R,4R,5S)-3,4-dihydroxy-4,5-dimethylcyclohexyl)pyridin-3-yl)-5-fluoropicolinamide] | 45.5 nM | 1150 nM | 107 nM | 0.96 nM |

These reach a lower IC50 (Pim3 kinase). Values come first.

| IC50 (Pim3 kinase) | EC50 [1] | IC50 (Pim2 kinase) | IC50 (Pim1 kinase) | Compound |
| --- | --- | --- | --- | --- |
| 2.46 nM | 66 nM | 2.74 nM | 0.03 nM | C[C@H]1C[C@@H](c2ccncc2NC(=O)c2ccc(F)c(-c3c(F)cc(C(C)(C)C#N)cc3F)n2)C[C@@H](N)[C@]1(C)O [Example 86, N-(4-((1R,3R,4R,5S)-3-amino-4-hydroxy-4,5-dimethylcyclohexyl)pyridin-3-yl)-6-(4-(2-cyanopropan-2-yl)-2,6-difluorophenyl)-5-fluoropicolinamide] |
| 2.37 nM | 174 nM | 3.85 nM | 0.04 nM | C[C@H]1C[C@@H](c2ccncc2NC(=O)c2ccc(F)c(-c3c(F)cc(C4(O)CCC4)cc3F)n2)C[C@@H](N)[C@]1(C)O [Example 95, N-(4-((1R,3R,4R,5S)-3-amino-4-hydroxy-4,5-dimethylcyclohexyl)pyridin-3-yl)-6-(2,6-difluoro-4-(1-hydroxycyclobutyl)phenyl)-5-fluoropicolinamide] |
| 2.2 nM | 91 nM | 3.89 nM | 0.09 nM | C[C@H]1C[C@@H](c2ccncc2NC(=O)c2ccc(F)c(-c3c(F)cc(COC4CCOCC4)cc3F)n2)C[C@@H](N)[C@]1(C)O [Example 92, N-(4-((1R,3R,4R,5S)-3-amino-4-hydroxy-4,5-dimethylcyclohexyl)pyridin-3-yl)-6-(2,6-difluoro-4-((tetrahydro-2H-pyran-4-yloxy)methyl)phenyl)-5-fluoropicolinamide] |
| 1.62 nM | 102 nM | 2.4 nM | 0.07 nM | CC(C)OCc1cc(F)c(-c2nc(C(=O)Nc3cnccc3[C@H]3C[C@@H](N)[C@](C)(O)[C@@H](C)C3)ccc2F)c(F)c1 [Example 91, N-(4-((1R,3R,4R,5S)-3-amino-4-hydroxy-4,5-dimethylcyclohexyl)pyridin-3-yl)-6-(2,6-difluoro-4-(isopropoxymethyl)phenyl)-5-fluoropicolinamide] |
| 1.23 nM | 1400 nM | 8.44 nM | 0.09 nM | C[C@H]1C[C@@H](c2ccncc2NC(=O)c2ccc(F)c(-c3c(F)cc(OCC(=O)N(C)C)cc3F)n2)C[C@@H](N)[C@]1(C)O [Example 93, N-(4-((1R,3R,4R,5S)-3-amino-4-hydroxy-4,5-dimethylcyclohexyl)pyridin-3-yl)-6-(4-(2-(dimethylamino)-2-oxoethoxy)-2,6-difluorophenyl)-5-fluoropicolinamide] |
| 1.18 nM | 43 nM | 2.68 nM | 0.02 nM | C[C@H]1C[C@@H](c2ccncc2NC(=O)c2ccc(F)c(-c3c(F)cc(C4(O)CCCC4)cc3F)n2)C[C@@H](N)[C@]1(C)O [Example 82, N-(4-((1R,3R,4R,5S)-3-amino-4-hydroxy-4,5-dimethylcyclohexyl)pyridin-3-yl)-6-(2,6-difluoro-4-(1-hydroxycyclopentyl)phenyl)-5-fluoropicolinamide] |
| 0.94 nM | 409 nM | 4.42 nM | 0.03 nM | C[C@H]1C[C@@H](c2ccncc2NC(=O)c2ccc(F)c(-c3c(F)cc(C4=CCCC4)cc3F)n2)C[C@@H](N)[C@]1(C)O [Example 81, N-(4-((1R,3R,4R,5S)-3-amino-4-hydroxy-4,5-dimethylcyclohexyl)pyridin-3-yl)-6-(4-cyclopentenyl-2,6-difluorophenyl)-5-fluoropicolinamide] |
| 0.71 nM | 9300 nM | 3.71 nM | 0.03 nM | C[C@H]1C[C@@H](c2ccncc2NC(=O)c2nc(-c3c(F)cc(C4(O)CCOCC4)cc3F)sc2N)C[C@@H](N)[C@]1(C)O [Example 83, 5-amino-N-(4-((1R,3R,4R,5S)-3-amino-4-hydroxy-4,5-dimethylcyclohexyl)pyridin-3-yl)-2-(2,6-difluoro-4-(4-hydroxytetrahydro-2H-pyran-4-yl)phenyl)thiazole-4-carboxamide] |
| 0.48 nM | 343 nM | 2.8 nM | 0.01 nM | C[C@H]1C[C@@H](c2ccncc2NC(=O)c2nc(-c3c(F)cc(C4(F)CCOCC4)cc3F)sc2N)C[C@@H](N)[C@]1(C)O [Example 84, 5-amino-N-(4-((1R,3R,4R,5S)-3-amino-4-hydroxy-4,5-dimethylcyclohexyl)pyridin-3-yl)-2-(2,6-difluoro-4-(4-fluorotetrahydro-2H-pyran-4-yl)phenyl)thiazole-4-carboxamide] |
| 0.41 nM | 57 nM | 1.91 nM | 0.01 nM | C[C@H]1C[C@@H](c2ccncc2NC(=O)c2ccc(F)c(-c3c(F)cc(N4CCOCC4)cc3F)n2)C[C@@H](N)[C@]1(C)O [Example 87, N-(4-((1R,3R,4R,5S)-3-amino-4-hydroxy-4,5-dimethylcyclohexyl)pyridin-3-yl)-6-(2,6-difluoro-4-morpholinophenyl)-5-fluoropicolinamide] |
| 0.35 nM | 22 nM | 1.47 nM | 0.02 nM | C[C@H]1C[C@@H](c2ccncc2NC(=O)c2ccc(F)c(-c3c(F)cc(O[C@H]4CCCOC4)cc3F)n2)C[C@@H](N)[C@]1(C)O [Example 89, N-(4-((1R,3R,4R,5S)-3-amino-4-hydroxy-4,5-dimethylcyclohexyl)pyridin-3-yl)-6-(2,6-difluoro-4-((S)-tetrahydro-2H-pyran-3-yloxy)phenyl)-5-fluoropicolinamide] |
| 0.32 nM | 706 nM | 1.99 nM | 0.01 nM | C[C@H]1C[C@@H](c2ccncc2NC(=O)c2nc(-c3c(F)cc(C4CCOCC4)cc3F)sc2N)C[C@@H](N)[C@]1(C)O [Example 85, 5-amino-N-(4-((1R,3R,4R,5S)-3-amino-4-hydroxy-4,5-dimethylcyclohexyl)pyridin-3-yl)-2-(2,6-difluoro-4-(tetrahydro-2H-pyran-4-yl)phenyl)thiazole-4-carboxamide] |
